Assay results reported in patent US8741944B2, “Anti-infective agents against intracellular pathogens” (priority 2007, dated 2014).
“Also recorded” adds a separate entry of the source. Where two headings read alike, the source gives them in different places.

Tests used:
S. typhimurium [1] = experiment: Extracellular bacterial growth in liquid medium and on agar (disc-diffusion); assay type: cell-based, Salmonella typhimurium; details: concentrations of up to 5 μM
autophagy = experiment: Autophagy induction; assay type: cell-based, human
Text: OSU-03012 eliminates intracellular S. typhimurium by inducing autophagy in infected macrophages. […] Additional evidence for this mechanism of action comes from the human breast cancer cell lines, MCF-7 and MDA-MB-231, which differ in their expression levels of beclin-1, a tumor suppressor that is critical for the execution of autophagy (FIG. 5A). Accordingly, the ability of OSU-03012 to induce autophagy in these cell lines, as determined by the intensity of immunostaining for endogenous LC3, a marker of mammalian autophagosomes (FIG. 5C), correlates with their respective beclin-1 expression levels. Moreover, intracellular bacterial survival in OSU-03012-treated S. typhimurium-infected breast cancer cells also reflects their respective beclin-1 status (FIG. 5B). […] Moreover, OSU-03012 induces autophagy and bacterial clearance far more potently than rapamycin and at clinically attainable concentrations.

F. novicida = assay type: cell-based; details: RAW 264.7 cells, 1 μM for 24 h
[2] = in vivo
recombinant PDK-1 = recombinant PDK-1 (Homo sapiens (Human), UniProt O15530); experiment: PDK-1 kinase activity (PDK-1 kinase assay kit, cell-free); assay type: biochemical; details: for IC50: inhibiting recombinant PDK-1 kinase activity
Description: PDK-1 kinase activity This in vitro assay was performed using a PDK-1 kinase assay kit (Upstate, Lake Placid, N.Y.) according to the vendor's instructions. This cell-free assay is based on the ability of recombinant PDK-1, in the presence of DMSO vehicle or the test agent, to activate its downstream kinase serum- and glucocorticoid-regulated kinase (SGK.) which, in turn, phosphorylates the Akt/SGK-specific peptide substrate RPRAATF with [γ-^32]-ATP. […] The reported values represent the means of two independent determinations.

S. typhimurium [3] = experiment: Intracellular survival (gentamicin protection) assay, S. typhimurium in RAW 264.7 murine macrophages; assay type: cell-based, Salmonella typhimurium
Description: The discovery that OSU-03012 induces autophagy in human cancer cells, coupled with the importance of autophagy as a defense against intracellular pathogens, prompted us to test the effect of this agent on the intracellular survival of S. typhimurium in infected RAW 264.7 murine macrophages. Both time- and dose-dependent effects of OSU-03012 were assessed in intracellular survival (i.e. gentamicin protection) assays. […] To determine if OSU-03012 had direct bactericidal activity, the effect of OSU-03012 on extracellular bacterial growth was examined in liquid medium (FIG. 3C) and on agar by the disc-diffusion method (not shown).

PC-3 cells [4] = experiment: Cell viability analysis, MTT assay in PC-3 cells; assay type: cell-based, human
Description: Cell Culture PC-3 (p53−/−) human androgen-non-responsive prostate cancer cells were purchased from the American […] (Manassas, Va.). Cells were cultured in RPMI 1640 medium (Gibco, Grand Island, N.Y.) supplemented with 10% fetal bovine serum (FBS; Gibco) at 37° C. in a humidified incubator containing 5% CO2.
Controls received DMSO vehicle at a concentration equal to that in drug-treated cells. The medium was removed, replaced by 200 μl of 0.5 mg/ml of MTT in 10% FBS-containing RPMI-1640 medium, and cells were incubated in the CO2 incubator at 37° C. for 2 h. Supernatants were removed from the wells, and the reduced MTT dye was solubilized in 200 μL/well DMSO. Absorbance at 570 nm was determined on a plate reader.

PC-3 cells [5] = experiment: Cell proliferation of PC-3 cells (Coulter counter, 10% FBS); assay type: cell-based, human; details: 1 μM, 10% FBS-supplemented RPMI 1640 medium
Description: Cell Proliferation PC-3 cells were seeded into six-well plates at 50,000 cells/well in 10% FBS-containing RPMI 1640 medium. Following a 24 h attachment period, cells were treated in triplicate with the indicated concentration of compounds 1-36 or DMSO vehicle in 10% FBS-containing RPMI-1640 medium. At different time intervals, cells were harvested by trypsinization, and numerated using a Coulter counter model Z1 D/T (Beckman Coulter, Fullerton, Calif.).

Akt [6] = experiment: Immunoprecipitated Akt kinase assay after treatment of PC-3 cells (intracellular Akt activation); assay type: cell-based, human; details: PC-3 cells treated for 2 h; read-out: IC50 for inhibiting intracellular Akt activation
Description: Immunoprecipitated Akt kinase assay Akt immunoprecipitation was carried out according to a modified, published procedure. PC-3 cells were treated with DMSO vehicle or the test agents at the indicated concentrations for 2 h and then lysed at 4° C. for 1 h in buffer A containing 50 mM Tris-HCl, pH 7.5, 1% Triton X-100, 1 mM EDTA, 1 mM EGTA, 50 mM sodium fluoride, 10 mM sodium β-glycerophosphate. 0.1% 2-mercaptoethanol, 0.1 mM phenylmethylsiilfonyl fluoride, and 1 μg/mL each of aprotinin, pepstatin, and leupeptin. Cell lysates were centrifuged at 10,000 g for 5 min, and the supernatant was treated with anti-Akt at 4° C. for 60 min., followed by protein G-agarose beads for additional 60 min. The immunoprecipitate was used to analyze Akt kinase activity by using the Akt/SGK-specific peptide substrate RPRAATF as described above. Values represented the means of two independent determinations.

phospho-Akt = experiment: Western blot analysis of Akt and phospho-Akt in PC-3 cells; assay type: cell-based, human; details: 5 μM and above
Description: Immunoblotting. The general procedure for the Western blot analysis of Akt and phospho-Akt is described as follows. Cells were washed in PBS, resuspended in SDS sample buffer sonicated by an ultrasonic sonicator for 5 see, and boiled for 5 min. After brief centrifugation, equivalent protein concentrations from the soluble fractions were resolved in 10% SDS-polyacrylamide gels on a Minigel apparatus, and transferred to a nitrocellulose membrane using a semi-dry transfer cell. The transblotted membrane was washed three times with TBS containing 0.05% Tween 20 (TBST). After blocking with TBST containing 5% nonfat milk for 60 min., the membrane was incubated with the primary antibody at 1:1,000 dilution in TBST-5% low fat milk at 4° C. for 12 h, and was then washed three times with TBST. The membrane was probed with goat anti-rabbit IgG-HRP conjugates (1:1,000) for 1 h at room temperature, and was washed with TBST three times. The immunoblots were visualized by enhanced chemiluminescence.

Akt [7] = experiment: Direct inhibition of immunoprecipitated Akt kinase activity; assay type: biochemical, human
[8] = inducing apoptotic death in PC-3 cells / PC-3 cell viability, read-out: IC50 PC-3

Sequence of recombinant PDK-1 (O15530 whole entry, looked up): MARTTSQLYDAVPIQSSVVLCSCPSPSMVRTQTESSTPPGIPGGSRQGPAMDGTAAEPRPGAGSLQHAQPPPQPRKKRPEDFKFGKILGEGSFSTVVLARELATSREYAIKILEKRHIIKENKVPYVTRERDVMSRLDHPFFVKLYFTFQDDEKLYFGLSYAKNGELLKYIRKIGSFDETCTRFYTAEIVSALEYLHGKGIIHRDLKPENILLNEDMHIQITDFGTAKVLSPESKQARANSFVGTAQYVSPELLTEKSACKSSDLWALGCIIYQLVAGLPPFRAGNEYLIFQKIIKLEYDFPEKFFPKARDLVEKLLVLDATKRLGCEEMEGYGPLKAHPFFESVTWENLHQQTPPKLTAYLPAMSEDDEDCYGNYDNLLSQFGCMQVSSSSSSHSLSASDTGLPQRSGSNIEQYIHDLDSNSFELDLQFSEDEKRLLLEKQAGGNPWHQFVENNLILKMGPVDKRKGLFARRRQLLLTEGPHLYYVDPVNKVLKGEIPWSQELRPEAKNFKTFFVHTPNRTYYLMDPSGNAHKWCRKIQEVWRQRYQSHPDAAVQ

Row | Compound | IC50 (recombinant PDK-1) | IC50 (PC-3 cells [4]; [8]) | other results
1 | NCC(=O)Nc1ccc(-n2nc(C(F)(F)F)cc2-c2ccc3c(ccc4ccccc43)c2)cc1 [OSU-03012] | ~5 µM | – | extracellular growth of S. typhimurium (S. typhimurium [1]): unaffected; IC50 for autophagy induction (autophagy): sub-μM; intracellular survival of F. novicida (F. novicida): drastically reduced; also recorded: reduced intracellular survival; oral bioavailability / pharmacokinetic properties [2]: orally bioavailable with favorable pharmacokinetic properties; concentration of maximal inhibition of intracellular bacterial survival (S. typhimurium [3]; S. typhimurium in RAW 264.7, 8 h of treatment): 1 µM; IC50 (S. typhimurium [3]; Salmonella enterica, RAW264.7, S. typhimurium in RAW 264.7, 8 h of treatment, read-out: IC50 of intracellular bacterial survival): ~0.2 µM
2 | 4-[5-(4′-bromomethyl[1,1′-biphenyl]-4-yl)-3-(trifluoromethyl)-1H-1-yl]benzenesulfonamide [Compound 52] | 20 µM | 11 µM | –
3 | Cn1cnc(N)c2ncnc1-2 [Compound 3MA, 3-methyladenine] | – | – | effect on ability of OSU-03012 to reduce intracellular bacterial survival (S. typhimurium [3]; infected RAW 264.7 cells, 1 μM OSU-03012 for 8 h): completely blocked
4 | Cc1ccc(-c2cc(C(F)(F)F)nn2-c2ccc(S(N)(=O)=O)cc2)cc1 [Comparative Compound, 4-[5-(4-methylphenyl)-3-(trifluoromethyl)-1H-pyrazol-1-yl]benzenesulfonamide, reference compound] | – | – | IC50 (PC-3 cells [4]; Homo sapiens, PC-3, read-out: IC50 PC-3): 30 µM
5 | 4-[5-(4-(phenylmethyl)phenyl)-3-(trifluoromethyl)-1H-1-yl]benzenesulfonamide [Compound 56] | 15 µM | 8 µM | –
6 | 4-[5-(4′-butyl[1,1′-biphenyl]-4-yl)-3-(trifluoromethyl)-1H-1-yl]benzenesulfonamide [Compound 54] | 32 µM | 15 µM | –
7 | 4-[5-(3′,5′-dimethyl[1,1;-biphenyl]-4-yl)-3-(trifluoromethyl)-1H-1-yl]benzenesulfonamide [Compound 53] | 17 µM | – | –
8 | 4-[5-(4′-methyl[1,1′-biphenyl]4-yl)-3-(trifluoromethyl)-1H-1-yl]benzenesulfonamide [Compound 50] | – | 8 µM | –
9 | 4-[5-(2-phenanthrenyl)-3-(trifluoromethyl)-1H-1-yl]benzenesulfonamide [Compound 59] | – | 5 µM | anti-proliferative activity on PC-3 cell proliferation (PC-3 cells [5]): substantial anti-proliferative activity; IC50 (Akt [6]): 5 µM; Akt dephosphorylation (Western blot) (phospho-Akt): significant Akt dephosphorylation; improvement of IC50 values over 4-[5-(4-methylphenyl)-3-(trifluoromethyl)-1H-pyrazol-1-yl]benzenesulfonamide (recombinant PDK-1; PDK-1 activity and PC-3 cell viability): five- to six-fold; direct inhibitory effect on immunoprecipitated Akt kinase activity (Akt [7]): Neither compound 59 nor other the other compounds displayed a direct inhibitory effect; IC50 (PC-3 cells [4]; 24 h, 1% FBS-containing RPMI 1640 medium, read-out: dose required to induce 50% PC-3 cell death): 5 µM
10 | 4-[5-4-biphenylyl)-3-(trifluoromethyl)-1H-pyrazol-1-yl]benzensulfonamide [Compound 45] | 21 µM | 11 µM | –
11 | 4-[5-(9-phenanthrenyl)-3-(trifluoromethyl)-1H-1-yl]benzenesulfonamide [Compound 60] | 42 µM | 23 µM | –
12 | 5-(2-Phenanthrenyl)-3-(trifluoromethyl)-4-(1H-tetrazol-5-ylmethylphenyl)-1H-pyrazole [Compound 69] | 45 µM | 27 µM | –
13 | 5-(2-Phenanthrenyl)-3-(trifluoromethyl)-4-(1H-tetrazol-5-ylphenyl)-1H-pyrazole [Compound 64] | 52 µM | 32 µM | –
14 | 4-[5-(9H-fluoren-2-yl)-3-(trifluoromethyl)-1H-1-yl]benzenesulfonamide [Compound 57] | 16 µM | – | –
15 | CO[C@H]1C[C@@H]2CC[C@@H](C)[C@@](O)(O2)C(=O)C(=O)N2CCCC[C@H]2C(=O)O[C@H]([C@H](C)C[C@@H]2CC[C@@H](O)[C@H](OC)C2)CC(=O)[C@H](C)/C=C(\C)[C@@H](O)[C@@H](OC)C(=O)[C@H](C)C[C@H](C)/C=C/C=C/C=C/1C [rapamycin] | – | – | suppression of survival of S. typhimurium in murine macrophages (S. typhimurium [3]): capable of suppressing survival; fold higher concentration required to match bacterial clearance caused by OSU-03012 (S. typhimurium [3]; S. typhimurium in murine macrophages): ~100 fold
16 | 4-[5-(4′triflouromethyl[1,1′-biphenyl]-4-yl)-3-(trifluoromethyl)-1H-1-yl]benzenesulfonamide [Compound 51] | 18 µM | 8 µM | –
17 | 4-[5-(4′-tert-buty[1,1′-biphenyl]-4-yl)-3-(trifluoromethyl)-1H-1-yl]benzenesulfonamide [Compound 55] | 32 µM | 15 µM | –
